Laboratory results from US4628104A, “Imidazole ketone derivatives” (G. D. Searle & Co., priority 1985, dated 1986).
Values after ≈ are worked out from the molar mass of the structure shown. Values joined by “and” are separate entries in the source; they are usually repeats but may differ in a detail not shown here. Equal values may be shown once. Where a name gives a salt, the structure may show the parent alone. Read-outs that look alike come from different tables or passages of the source.

Experiments:
[1] = test system: Propionibacterium acnes NCTC 737; test: Anti-anaerobic activity, additional strains, strain N; format: cell-based; conditions: Cutibacterium acnes, NCTC737
[2] = test system: Peptostreptococcus anaerobicus ATCC 27337; test: Anti-anaerobic activity, additional strains, strain M; conditions: ATCC27337
[3] = test system: B. fragilis MZ-R ATCC 11295; test: Anti-anaerobic activity, microtitre plate broth dilution, strain D; format: cell-based, Bacteroides fragilis; conditions: for MBC / MIC: Bacteroides fragilis, ATCC11295, 48 h; for MBC: 99.9% reduction in viable count, 48 hours, read-out: MBC (Minimum Bactericidal Concentration); for MIC: read-out: MIC (Minimum Inhibitory Concentration)
[4] = test system: Propionibacterium acnes NCTC 7337; test: Anti-anaerobic activity, additional strains, strain O; format: cell-based; conditions: Cutibacterium acnes, NCTC7337
[5] = test system: B. fragilis NCTC 9343; test: Anti-anaerobic activity, microtitre plate broth dilution, strain B; format: cell-based, Bacteroides fragilis; conditions: for MBC / MIC: Bacteroides fragilis, NCTC9343, 48 h; for MBC: read-out: MBC (Minimum Bactericidal Concentration); for MIC: read-out: MIC (Minimum Inhibitory Concentration)
[6] = test system: B. fragilis NCTC 10581; test: Anti-anaerobic activity, microtitre plate broth dilution, strain A; format: cell-based, Bacteroides fragilis; conditions: for MBC / MIC: Bacteroides fragilis, NCTC10581, 48 h; for MBC: read-out: MBC (Minimum Bactericidal Concentration); for MIC: 48 hours at 37° C., anaerobic, read-out: MIC (Minimum Inhibitory Concentration)
[7] = test system: B. fragilis WS-1; test: Anti-anaerobic activity, microtitre plate broth dilution, strain E; format: cell-based; conditions: Bacteroides fragilis, WS1, 48 h, 48 hours at 37° C., read-out: MIC (Minimum Inhibitory Concentration)
[8] = test system: Clostridium perfringens NCTC 523; test: microbe, parasite or virus in culture; format: cell-based; conditions: NCTC523
[9] = test system: Campylobacter fetus ATCC 29428; test: Anti-anaerobic activity, additional strains, strain I; conditions: ATCC29428
[10] = test system: Clostridium perfringens NCTC 8237; test: microbe, parasite or virus in culture; format: cell-based; conditions: NCTC8237, strain G
[11] = test system: Fusobacterium necrophorum ATCC 11295; test: Anti-anaerobic activity, additional strains, strain J; format: cell-based
[12] = test system: Peptococcus prevotti ATCC 9321; test: Anti-anaerobic activity, additional strains, strain L; format: cell-based
[13] = test system: Peptococcus magnus ATCC 29328; test: Anti-anaerobic activity, additional strains, strain K; format: cell-based; conditions: Finegoldia magna, ATCC29328
[14] = test system: Clostridium difficile CI; test: Anti-anaerobic activity, additional strains, strain H; conditions: Clostridioides difficile
[15] = test system: B. fragilis NCTC 9344; test: Anti-anaerobic activity, microtitre plate broth dilution, strain C; format: cell-based; conditions: Bacteroides fragilis, NCTC9344, 48 h; for MBC: 99.9% reduction in viable count, 48 hours, read-out: MBC (Minimum Bactericidal Concentration); for MIC: 48 hours at 37° C., anaerobic, read-out: MIC (Minimum Inhibitory Concentration)
[16] = strain D, 48 hours at 37° C., anaerobic
[17] = 99.9% reduction in viable count, 48 hours
[18] = strain A, 99.9% reduction in viable count, 48 hours
[19] = ATCC11295, strain J, read-out: MIC

Structure (SMILES) | MIC [2] | MBC ([3]; strain D) | MIC [3, 16] | MBC [5, 17] | MIC ([5]; 48 hours at 37° C., anaerobic) | MBC [6, 18] | MIC ([6]; strain A) | MIC [7] | MIC [8] | MIC [9] | MIC [10] | MBC [15] | MIC [15] | MIC ([1]; strain N, read-out: MIC) | MIC [11, 19] | also measured
O=C(c1ccc(Cl)cc1Cl)C(Cn1ccnc1)c1ccccc1 (stereo not drawn) [Example 2, 1-(2,4-Dichlorophenyl)-3-(imidazol-1-yl)-2-phenylpropan-1-one] | 0.8 µg/mL (≈ 2.32 µM) | 0.8 µg/mL (≈ 2.32 µM) | 0.8 µg/mL (≈ 2.32 µM) | 0.8 µg/mL (≈ 2.32 µM) | 0.8 µg/mL (≈ 2.32 µM) | 0.8 µg/mL (≈ 2.32 µM) | 0.8 µg/mL (≈ 2.32 µM) | 0.8 µg/mL (≈ 2.32 µM) | 0.8 µg/mL (≈ 2.32 µM) | 0.8 µg/mL (≈ 2.32 µM) | 0.8 µg/mL (≈ 2.32 µM) | 0.8 µg/mL (≈ 2.32 µM) | 0.8 µg/mL (≈ 2.32 µM) |  |  | MIC [1]: 0.8 µg/mL (≈ 2.32 µM); MIC [4]: 0.8 µg/mL (≈ 2.32 µM); MIC ([11]; ATCC11295): 0.8 µg/mL (≈ 2.32 µM); MIC [12]: 0.8 µg/mL (≈ 2.32 µM); MIC [13]: 0.8 µg/mL (≈ 2.32 µM); MIC [14]: 0.8 µg/mL (≈ 2.32 µM)
Cc1ccc(C(Cn2ccnc2)C(=O)c2ccc(Cl)cc2Cl)cc1 (stereo not drawn) [Example 15, 1-(2,4-Dichlorophenyl)-3-(imidazol-1-yl)-2-(4-methylphenyl) propan-1-one] |  | 0.8 µg/mL (≈ 2.23 µM) | 0.8 µg/mL (≈ 2.23 µM) | 0.8 µg/mL (≈ 2.23 µM) | 0.8 µg/mL (≈ 2.23 µM) | 0.8 µg/mL (≈ 2.23 µM) | 0.8 µg/mL (≈ 2.23 µM) | 0.8 µg/mL (≈ 2.23 µM) | 0.3 µg/mL (≈ 0.835 µM) |  | 0.6 µg/mL (≈ 1.67 µM) | 0.8 µg/mL (≈ 2.23 µM) | 0.8 µg/mL (≈ 2.23 µM) | 0.6 µg/mL (≈ 1.67 µM) | 0.3 µg/mL (≈ 0.835 µM) | MIC ([4]; strain O, read-out: MIC): 0.1 µg/mL (≈ 0.278 µM)
Cc1ccc(C(Cn2cncn2)C(=O)c2ccc(Cl)cc2Cl)cc1 (stereo not drawn) [Example 16, 1-(2,4-Dichlorophenyl)-2-(4-methylphenyl)-3-(1,2,4-triazol-1-yl)propan-1-one hydrochloride] |  | 15 µg/mL | 0.8 µg/mL | 3.1 µg/mL | 3.1 µg/mL | 3.1 µg/mL | 3.1 µg/mL | 1.5 µg/mL |  |  |  | 3.1 µg/mL | 3.1 µg/mL |  |  | 
CCCCCCCC(=O)C(Cn1ccnc1)c1ccc(C)cc1 (stereo not drawn) [Example 17, 1-(Imidazol-1-yl)-2-(4-methylphenyl)decan-3-one hydrochloride] |  | 100 µg/mL | 3.1 µg/mL | 100 µg/mL | 12.5 µg/mL | 100 µg/mL | 12.5 µg/mL | 12.5 µg/mL |  |  |  |  |  |  |  | 
O=C(c1cc(Cl)cc(Cl)c1)C(Cn1ccnc1)c1ccccc1 (stereo not drawn) [Example 18, 1-(3,5-Dichlorophenyl)-3-(imidazol-1yl)-2-phenyl propan-1-one] | 6.2 µg/mL (≈ 18 µM) | 1.5 µg/mL (≈ 4.34 µM) | 0.8 µg/mL (≈ 2.32 µM) | 1.5 µg/mL (≈ 4.34 µM) | 1.5 µg/mL (≈ 4.34 µM) | 1.5 µg/mL (≈ 4.34 µM) | 0.8 µg/mL (≈ 2.32 µM) | 1.5 µg/mL (≈ 4.34 µM) | 3.1 µg/mL (≈ 8.98 µM) | 3.1 µg/mL (≈ 8.98 µM) | 3.1 µg/mL (≈ 8.98 µM) | 0.8 µg/mL (≈ 2.32 µM) | 0.8 µg/mL (≈ 2.32 µM) | 6.2 µg/mL (≈ 18 µM) | 6.2 µg/mL (≈ 18 µM) | MIC [4]: 3.1 µg/mL (≈ 8.98 µM); MIC [12]: 3.1 µg/mL (≈ 8.98 µM); MIC [13]: 3.1 µg/mL (≈ 8.98 µM); MIC ([14]; strain H): 1.5 µg/mL (≈ 4.34 µM)
O=C(c1cccnc1)C(Cn1ccnc1)c1ccccc1 (stereo not drawn) [Example 19, 3-(Imidazol-1-yl)-2-phenyl-1-(3-pyridyl)propan-1-one] |  | 50 µg/mL (≈ 180 µM) | 12.5 µg/mL (≈ 45.1 µM) | 50 µg/mL (≈ 180 µM) | 12.5 µg/mL (≈ 45.1 µM) | 50 µg/mL (≈ 180 µM) | 12.5 µg/mL (≈ 45.1 µM) | 6.2 µg/mL (≈ 22.4 µM) |  |  |  | 50 µg/mL (≈ 180 µM) | 12.5 µg/mL (≈ 45.1 µM) |  |  | 
O=C(c1cccnc1)C(Cn1cncn1)c1ccccc1 (stereo not drawn) [Example 20, 2-Phenyl-1-(3-pyridyl)-3-(1,2,4-triazol-1-yl)propan-1-one] |  |  | 100 µg/mL (≈ 359 µM) |  | 100 µg/mL (≈ 359 µM) |  | 100 µg/mL (≈ 359 µM) | 100 µg/mL (≈ 359 µM) |  |  |  |  | 100 µg/mL (≈ 359 µM) |  |  | 
O=C(c1ccccn1)C(Cn1ccnc1)c1ccccc1 (stereo not drawn) [Example 21, 3-(Imidazol-1-yl)-2-phenyl-1-(2-pyridyl)propan-1-one] |  | 6.2 µg/mL (≈ 22.4 µM) | 6.2 µg/mL (≈ 22.4 µM) | 25 µg/mL (≈ 90.1 µM) | 25 µg/mL (≈ 90.1 µM) | 12.5 µg/mL (≈ 45.1 µM) | 12.5 µg/mL (≈ 45.1 µM) | 25 µg/mL (≈ 90.1 µM) |  |  |  | 12.5 µg/mL (≈ 45.1 µM) | 6.2 µg/mL (≈ 22.4 µM) |  |  | 
CC(C)(C)C(Cn1ccnc1)C(=O)c1ccc(Cl)cc1Cl (stereo not drawn) [Example 22, 1-(2,4-Dichlorophenyl)-3,3-dimethyl-2-(imidazol-1-ylmethyl)butan-1-one] |  |  | 50 µg/mL (≈ 154 µM) |  | 50 µg/mL (≈ 154 µM) |  | 50 µg/mL (≈ 154 µM) | 100 µg/mL (≈ 307 µM) |  |  |  |  | 50 µg/mL (≈ 154 µM) |  |  | 
O=C(c1ccc(Cl)cc1Cl)C(Cn1cncn1)c1ccccc1 (stereo not drawn) [Example 23, 1-(2,4-Dichlorophenyl)-2-phenyl-3-(1,2,4-triazol-1-yl) propan-1-one] |  | 0.8 µg/mL (≈ 2.31 µM) | 0.8 µg/mL (≈ 2.31 µM) | 0.8 µg/mL (≈ 2.31 µM) | 0.8 µg/mL (≈ 2.31 µM) | 0.8 µg/mL (≈ 2.31 µM) | 0.8 µg/mL (≈ 2.31 µM) | 0.8 µg/mL (≈ 2.31 µM) |  |  |  | 0.8 µg/mL (≈ 2.31 µM) | 0.8 µg/mL (≈ 2.31 µM) |  |  | 
CSc1nccn1CC(C(=O)c1ccc(Cl)cc1Cl)c1ccccc1 (stereo not drawn) [Example 24, 1-(2,4-Dichlorophenyl)-2-phenyl-3-(2-thiomethylimidazol-1-yl)propan-1-one] |  | 100 µg/mL (≈ 256 µM) | 25 µg/mL (≈ 63.9 µM) | 100 µg/mL (≈ 256 µM) | 25 µg/mL (≈ 63.9 µM) | 100 µg/mL (≈ 256 µM) | 25 µg/mL (≈ 63.9 µM) | 50 µg/mL (≈ 128 µM) |  |  |  | 100 µg/mL (≈ 256 µM) | 25 µg/mL (≈ 63.9 µM) |  |  | 
O=C(Cc1ccccc1)C(Cn1ccnc1)c1ccccc1 (stereo not drawn) [Example 25, 1,3-Diphenyl-4-(imidazol-1-yl)butan-2-one] | 1.5 µg/mL (≈ 5.17 µM) |  | 12.5 µg/mL (≈ 43 µM) |  | 25 µg/mL (≈ 86.1 µM) |  | 25 µg/mL (≈ 86.1 µM) | 25 µg/mL (≈ 86.1 µM) | 0.8 µg/mL (≈ 2.76 µM) | 25 µg/mL (≈ 86.1 µM) | 0.8 µg/mL (≈ 2.76 µM) |  | 25 µg/mL (≈ 86.1 µM) | 50 µg/mL (≈ 172 µM) | 100 µg/mL (≈ 344 µM) | MIC [12]: 0.8 µg/mL (≈ 2.76 µM); MIC ([13]; strain K, read-out: MIC): 6.2 µg/mL (≈ 21.4 µM); MIC ([14]; strain H): 25 µg/mL (≈ 86.1 µM)
Cc1ncc([N+](=O)[O-])n1CCO [Metronidazole, reference compound] | 0.3 µg/mL (≈ 1.75 µM) |  |  | 0.8 µg/mL (≈ 4.67 µM) | 0.8 µg/mL (≈ 4.67 µM) | 0.8 µg/mL (≈ 4.67 µM) |  |  | 0.08 µg/mL (≈ 0.467 µM) | 10 µg/mL (≈ 58.4 µM) |  |  |  | 10 µg/mL (≈ 58.4 µM) | 10 µg/mL (≈ 58.4 µM) | MIC [3]: 10 µg/mL (≈ 58.4 µM); MIC (Minimum Inhibitory Concentration) [3, 16]: 10.9 µg/mL and 10.0 µg/mL and 10 µg/mL; MIC ([4]; strain O, read-out: MIC): 10 µg/mL (≈ 58.4 µM); MBC (Minimum Bactericidal Concentration) [5, 17]: 1.2 µg/mL and 0.6 µg/mL; MIC (Minimum Inhibitory Concentration) ([5]; 48 hours at 37° C., anaerobic): 0.6 µg/mL and 1.2 µg/mL; MBC [6]: 1.2 µg/mL (≈ 7.01 µM); MBC (Minimum Bactericidal Concentration) [6, 18]: 1.2 µg/mL and 0.6 µg/mL; MIC ([13]; strain K, read-out: MIC): 0.6 µg/mL (≈ 3.51 µM)
